Publication PMC11661628, “Cannabis sativa extracts inhibit LDL oxidation and the formation of foam cells in vitro, acting as potential multi-step inhibitors of atherosclerosis development” (PLOS ONE, 2024)
Several values for one entry are separate records, joined by “and”; a condition that tells them apart may be missing. Equal values may be shown once. Read-outs that look alike come from different tables or passages of the source.

Legend:
TRPV1 = settings: cited from earlier work
CB1 = settings: cited from earlier work
J774.1 cells [1] = test: Quantitation of oxLDL endocytosis (DiI-oxLDL spectrofluorometry); assay type: cell-based, murine; settings: for effect on oxLDL uptake by the cells (dose-response, Fig 4) / ED50: DiI-oxLDL 10 μg mL^-1, 24 h; for effect of Ca2+ chelation on DiI-oxLDL internalized: BAPTA-AM 5–20 μM, EGTA 4 mM (S8 Fig); for ED50: oxLDL internalization, NE non-effective
CB2 = settings: cited from earlier work
GPR55 = settings: cited from earlier work
human TRPV1 = tested on: human TRPV1; parameters: method as in PMID 15615864; settings: cited from earlier work
rat TRPV1 = tested on: rat TRPV1; parameters: method as in PMID 15615864; settings: cited from earlier work
LDL = tested on: LDL; parameters: method as in PMID 33123676; settings: already described; cited from earlier work
J774.1 cells [2] = test: Cellular toxicity, MTT reduction; settings: 24 h; for LD50: MTT viability curves; for effect on cell viability and metabolism (MTT): explored range 3–30 μM
Procedure: Cell viability was determined by the mitochondrial-dependent reduction of 3-[4,5-dimethylthiazole-2-yl]-2,5-diphenyltetrazolium bromide (MTT, Merck KGaA) to formazan. […] A control condition with vehicle alone (0.2% DMSO) was also added to each experiment. The medium was replaced with DMEM containing MTT (0.1 mg mL^-1) and the cells were incubated at 37° C for 4 h. After removing the media, formazan crystals were dissolved in DMSO, and the absorbance was registered using the Varioskan plate reader at 560 nm. […] Therapeutic indexes (TI) were calculated as the ratios between the […].

TRPV4 = settings: read-out: Ki TRPV4; cited from earlier work
[3] = Fig 5 A-C, antagonist alone 5 µM, 24 h, replicates n=1-3
[4] = S2 Table, ref THC [1–5], CBD [3–6], AEA [2,3,5,8,9], AM251 [5,10–16], AM630 [14,15,17,18], ML184 [22–24], CID16020046 [25], read-out: Ki or IC50, GPR55
[5] = Fig 4, 0.32 µM, 24 h, replicates n=1-3
[6] = Fig 4, 1.59 µM, 24 h, replicates n=1-3
[7] = Fig 4, 3.18 µM, 24 h, replicates n=1-3
[8] = Fig 4, 12.72 µM, 24 h, replicates n=1-3
[9] = Fig 4, 0.28 µM, 24 h, replicates n=1-3
[10] = Fig 4, 1.39 µM, 24 h, replicates n=1-3
[11] = Fig 4, 2.79 µM, 24 h, replicates n=1-3
[12] = Fig 4, 8.37 µM, 24 h, replicates n=1-3
[13] = Fig 4, 13.95 µM, 24 h, replicates n=1-3

For `CCCCC/C=C\C/C=C\C/C=C\C/C=C\CCCC(=O)NCCO` [AEA, N-arachidonoylethanolamine], the Ki (TRPV1) is listed as 270 nM, the Ki (CB1) is listed as 31 to 252 nM and the “effect on oxLDL uptake by the cells (dose-response, Fig 4)” value (“effect on oxLDL uptake by the cells” below) (J774.1 cells [1]) is listed as “unable to prevent the uptake of oxLDL”.
In the case of `Cc1c(C(=O)NN2CCCCC2)nn(-c2ccc(Cl)cc2Cl)c1-c1ccc(I)cc1` [AM251, 1-(2,4-Dichlorophenyl)-5-(4-iodophenyl)-4-methyl-N-1-piperidinyl-1H-pyrazole-3-carboxamide], the Ki (CB2) is listed as 124 nM.
For `COc1ccc(C(=O)c2c(C)n(CCN3CCOCC3)c3cc(I)ccc23)cc1` [AM630], the Ki (CB2; read-out: Ki CB2) is listed as 31 nM, the “effect of the antagonist on the inhibition of oxLDL uptake by the extracts” value (J774.1 cells [1]) is listed as “unable to counteract the inhibitory effect” and the “DiI-oxLDL” value (J774.1 cells [1]; [3]) is listed as 5.170 µg/mL and 6.331 µg/mL and 3.777 µg/mL. For the same compound, the “µg DiI-oxLDL/mg protein” value (J774.1 cells [1]; [3]) was 10.904 µg DiI-oxLDL/mg protein and 13.538 µg DiI-oxLDL/mg protein and 10.952 µg DiI-oxLDL/mg protein and the Ki (GPR55; [4]) was 1500 nM.
In the case of `CC(C)(C)c1ccc(/C=C/C(=O)Nc2ccc3c(c2)OCCO3)cc1` [AMG9810, 2E-N-(2,3-dihydro-1,4-benzodioxin-6-yl)-3-[4-(1,1-dimethylethyl)phenyl]-2-propenamide], the IC50 (human TRPV1) is listed as 24.5 nM, the IC50 (rat TRPV1) is listed as 85.6 nM and the “effect of the antagonist on DiI-oxLDL uptake” value (“effect … on DiI-oxLDL uptake” for short) (J774.1 cells [1]) is listed as “significant inhibition of DiI-oxLDL uptake”.
In the case of `CC(=O)OCOC(=O)CN(CC(=O)OCOC(C)=O)c1ccccc1OCCOc1ccccc1N(CC(=O)OCOC(C)=O)CC(=O)OCOC(C)=O` [BAPTA-2AM], the “effect of Ca2+ chelation on DiI-oxLDL internalized” value (J774.1 cells [1]; 6 h) is reported as “very considerable impact”.
For `C=C(C)[C@@H]1CCC(C)=C[C@H]1c1c(O)cc(CCCCC)cc1O` [CBD, cannabidiol], the “protection of LDL from oxidation” value (LDL) is listed as “lack of protection”, the “effect on oxLDL uptake by the cells” value (J774.1 cells [1]) is listed as “inhibited oxLDL endocytosis” and the ED50 (J774.1 cells [1]) is listed as 25000 ± 5000 nM. For the same compound, the LD50 (J774.1 cells [2]) was 23 ± 1 µM and the Ki (GPR55; [4]) was 354 nM.
For `C=C(C)[C@@H]1CCC(C)=C[C@H]1c1c(O)cc(CCCCC)c(C(=O)O)c1O` [CBDA, cannabidiolic acid], the “protection of LDL from oxidation” value (LDL) is given as “lack of protection”, the Ki (CB2) is given as 813 nM and the Ki (CB1) is given as 626 nM. For the same compound, the “effect on oxLDL uptake by the cells” value (J774.1 cells [1]) was “inhibited oxLDL endocytosis”, the ED50 (J774.1 cells [1]) was 18000 ± 3000 nM and the LD50 (J774.1 cells [2]) was greater than 40 µM. For the same compound, the “effect on cell viability and metabolism (MTT)” value (J774.1 cells [2]) was “no effect”.
In the case of `Cc1ccc(-c2n[nH]c3c2C(c2cccc(O)c2)N(c2ccc(C(=O)O)cc2)C3=O)cc1` (stereo not drawn) [CID16020046, 4-[4,6-dihydro-4-(3-hydroxyphenyl)-3-(4-methylphenyl)-6-oxopyrrolo[3,4-c]pyrazol-5(1H)-yl]benzoic acid], the “effect … on DiI-oxLDL uptake” value (J774.1 cells [1]) is reported as “did not affect DiI-oxLDL uptake”.
For `COc1cc(CNC(=O)CCCCC=CC(C)C)ccc1O` [Capsaicin, 8-methyl-N-vanillyl-6-nonenamide], the “increase of DiI-oxLDL uptake” value (J774.1 cells [1]; agonist 50 μM, 6 h, absence of extracts) was ~ 15%.
For `O=C(O)CN(CCOCCOCCN(CC(=O)O)CC(=O)O)CC(=O)O` [EGTA], the “effect of Ca2+ chelation on DiI-oxLDL internalized” value (J774.1 cells [1]; 6 h) was “negligible”.
In the case of `CC(C)C[C@H](NC(=O)c1cc2ccccc2s1)C(=O)N1CCN(C(=O)[C@H](CO)NS(=O)(=O)c2ccc(Cl)cc2Cl)CC1` [GSK1016790A, N-[(1S)-1-[[4-[(2S)-2-[[(2,4-dichlorophenyl)sulfonyl]amine]-3-hydroxy-1-oxopropyl]-1-piperazinyl]carbonyl]-3-methylbutyl]benzo [b]thiophene-2-carboxamide], the Ki (TRPV4) is given as 5 nM and the “increase of DiI-oxLDL uptake” value (J774.1 cells [1]) is given as ~ 30%.
In the case of `Cc1c(C(=O)Nc2cccc(C(F)(F)F)c2)cc(-c2ccccc2)n1CCCN1CCOCC1` [HC067047, 2-methyl-1-(3-morpholin-4-ylpropyl)-5-phenyl-N -[3-(trifluoromethyl)phenyl]pyrrole-3-carboxamide], the Ki (TRPV4) is listed as 17 to 133 nM and the “effect … on DiI-oxLDL uptake” value (J774.1 cells [1]) is listed as “did not affect DiI-oxLDL uptake”.
For `Cc1cccc(N2CCN(C(=O)c3cc(S(=O)(=O)N(C)C)ccc3N3CCCC3)CC2)c1C` [ML184, 3-[[4-(2,3-dimethylphenyl)-1-piperazinyl]carbonyl]-N,N-dimethyl-4-(1-pyrrolidinyl) benzenesulfonamide], the Ki (CB2) is given as greater than 32000 nM, the Ki (CB1) is given as greater than 32000 nM and the “DiI-oxLDL” value (J774.1 cells [1]) is given as 0.641 µg/mL and 0.711 µg/mL and 0.735 µg/mL. The “increase of DiI-oxLDL uptake” value (J774.1 cells [1]) was ~ 15%, the “µg DiI-oxLDL/mg protein” value (J774.1 cells [1]) was 1.308 µg DiI-oxLDL/mg protein and 1.400 µg DiI-oxLDL/mg protein and 1.366 µg DiI-oxLDL/mg protein and the Ki (GPR55; read-out: Ki GPR55) was 260 nM.
For `CCCCCc1cc(O)c2c(c1)OC(C)(C)[C@@H]1CCC(C)=C[C@@H]21` [THC, Δ^9-tetrahydrocannabinol], the “protection of LDL from oxidation” value (LDL) is listed as “protection”, the “DiI-oxLDL” value (J774.1 cells [1]) is listed as 4.013 µg/mL and 4.084 µg/mL and 4.342 µg/mL and the “µg DiI-oxLDL/mg protein” value (J774.1 cells [1]) is listed as 10.0784 µg DiI-oxLDL/mg protein and 9.298 µg DiI-oxLDL/mg protein and 9.028 µg DiI-oxLDL/mg protein. For the same compound, the “effect on oxLDL uptake by the cells” value (J774.1 cells [1]) was “inhibited oxLDL endocytosis”, the “DiI-oxLDL” value (J774.1 cells [1]; [5]) was 5.502 µg/mL and 5.314 µg/mL and 5.656 µg/mL and the “µg DiI-oxLDL/mg protein” value (J774.1 cells [1]; [5]) was 13.3989 µg DiI-oxLDL/mg protein and 14.1131 µg DiI-oxLDL/mg protein and 13.7901 µg DiI-oxLDL/mg protein. The “DiI-oxLDL” value (J774.1 cells [1]; [6]) was 5.307 µg/mL and 5.178 µg/mL and 5.296 µg/mL, the “µg DiI-oxLDL/mg protein” value (J774.1 cells [1]; [6]) was 12.9859 µg DiI-oxLDL/mg protein and 12.4983 µg DiI-oxLDL/mg protein and 12.6611 µg DiI-oxLDL/mg protein and the “DiI-oxLDL” value (J774.1 cells [1]; [7]) was 4.772 µg/mL and 4.841 µg/mL and 4.891 µg/mL. The “µg DiI-oxLDL/mg protein” value (J774.1 cells [1]; [7]) was 12.1912 µg DiI-oxLDL/mg protein and 12.4565 µg DiI-oxLDL/mg protein and 12.6501 µg DiI-oxLDL/mg protein, the “DiI-oxLDL” value (J774.1 cells [1]; [8]) was 2.336 µg/mL and 2.309 µg/mL and 2.423 µg/mL and the “µg DiI-oxLDL/mg protein” value (J774.1 cells [1]; [8]) was 6.7266 µg DiI-oxLDL/mg protein and 6.397 µg DiI-oxLDL/mg protein and 6.486 µg DiI-oxLDL/mg protein. The ED50 (J774.1 cells [1]) was 11000 ± 1000 nM, the LD50 (J774.1 cells [2]) was 20 ± 1 µM and the Ki (GPR55; [4]) was 8 to 8.9 nM.
For `CCCCCc1cc2c(c(O)c1C(=O)O)C1C=C(C)CCC1C(C)(C)O2` (stereo not drawn) [THCA, Δ^9-tetrahydrocannabinolic acid], the “protection of LDL from oxidation” value (LDL) is given as “lack of protection”, the Ki (CB2) is given as 1650 nM and the Ki (CB1) is given as 1290 nM. For the same compound, the “effect on oxLDL uptake by the cells” value (J774.1 cells [1]) was “inhibited oxLDL endocytosis”, the “DiI-oxLDL” value (J774.1 cells [1]; [9]) was 5.657 µg/mL and 5.8008 µg/mL and 5.782 µg/mL and the “µg DiI-oxLDL/mg protein” value (J774.1 cells [1]; [9]) was 10.7513 µg DiI-oxLDL/mg protein and 10.8025 µg DiI-oxLDL/mg protein and 11.0708 µg DiI-oxLDL/mg protein. The “DiI-oxLDL” value (J774.1 cells [1]; [10]) was 5.437 µg/mL and 5.452 µg/mL and 5.506 µg/mL, the “µg DiI-oxLDL/mg protein” value (J774.1 cells [1]; [10]) was 9.919 µg DiI-oxLDL/mg protein and 9.956 µg DiI-oxLDL/mg protein and 10.007 µg DiI-oxLDL/mg protein and the “DiI-oxLDL” value (J774.1 cells [1]; [11]) was 5.849 µg/mL and 5.071 µg/mL and 5.133 µg/mL. The “µg DiI-oxLDL/mg protein” value (J774.1 cells [1]; [11]) was 9.9098 µg DiI-oxLDL/mg protein and 9.139 µg DiI-oxLDL/mg protein and 9.494 µg DiI-oxLDL/mg protein, the “DiI-oxLDL” value (J774.1 cells [1]; [12]) was 3.515 µg/mL and 3.542 µg/mL and 3.49 µg/mL and the “µg DiI-oxLDL/mg protein” value (J774.1 cells [1]; [12]) was 6.46 µg DiI-oxLDL/mg protein and 6.3952 µg DiI-oxLDL/mg protein and 6.189 µg DiI-oxLDL/mg protein. The “DiI-oxLDL” value (J774.1 cells [1]; [13]) was 2.689 µg/mL and 2.817 µg/mL and 2.8328 µg/mL, the “µg DiI-oxLDL/mg protein” value (J774.1 cells [1]; [13]) was 4.86 µg DiI-oxLDL/mg protein and 5.27 µg DiI-oxLDL/mg protein and 5.206 µg DiI-oxLDL/mg protein and the ED50 (J774.1 cells [1]) was 12000 ± 1000 nM. For the same compound, the “effect on cell viability and metabolism (MTT)” value (J774.1 cells [2]) was “no effect”.
